The results in this text go back to ChEMBL document CHEMBL1129866, “S1 heterocyclic thrombin inhibitors” (Bioorg Med Chem Lett, 1997).

The target of one assay is Coagulation factor X (Homo sapiens, UniProt P00742). Put plainly: Tested for selectivity against Coagulation factor X.
The next assay addresses Prothrombin (Homo sapiens, UniProt P00734). Put plainly: Tested for the binding affinity against thrombin.
Another assay addresses Serine protease 1 (Homo sapiens, UniProt P07477). Description: Tested for selectivity against trypsin.

Sequence of Serine protease 1 (P07477 whole entry): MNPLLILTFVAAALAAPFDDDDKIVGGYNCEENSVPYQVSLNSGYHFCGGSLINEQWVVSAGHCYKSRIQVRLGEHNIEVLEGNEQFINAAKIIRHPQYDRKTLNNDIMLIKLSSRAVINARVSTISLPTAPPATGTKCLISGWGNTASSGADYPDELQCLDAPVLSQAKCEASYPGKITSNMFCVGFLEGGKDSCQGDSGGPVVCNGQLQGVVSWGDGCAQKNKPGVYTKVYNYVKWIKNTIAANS
Sequence of Coagulation factor X (P00742 41-179 limits assumed): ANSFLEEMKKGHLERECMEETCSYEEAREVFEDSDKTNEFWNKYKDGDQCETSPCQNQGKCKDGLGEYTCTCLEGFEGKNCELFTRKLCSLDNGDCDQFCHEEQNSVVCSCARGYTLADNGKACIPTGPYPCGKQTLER
Sequence of Coagulation factor X (P00742 235-488 limits assumed): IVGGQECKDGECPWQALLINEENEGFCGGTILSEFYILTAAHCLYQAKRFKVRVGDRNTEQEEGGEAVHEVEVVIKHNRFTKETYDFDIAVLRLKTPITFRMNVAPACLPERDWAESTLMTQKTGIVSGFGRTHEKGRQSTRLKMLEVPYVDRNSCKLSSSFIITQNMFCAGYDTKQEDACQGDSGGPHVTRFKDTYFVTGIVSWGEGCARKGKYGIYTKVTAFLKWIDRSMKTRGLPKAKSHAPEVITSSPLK

One may read the Ki as the equilibrium dissociation constant of an inhibitor or competing ligand from its target. Turning to `CCCCS(=O)(=O)N[C@H](Cc1ccccc1)C(=O)N1CCC[C@H]1C(=O)N[C@@H](CCCn1ccnc1N)B1O[C@@H]2CC3CC(C3(C)C)[C@]2(C)O1` (stereo partly specified), the values for the Ki on Coagulation factor X, at Prothrombin and on Serine protease 1 were 970 nM, 3.2 nM and 40 nM, respectively.
On to `CC(=O)N[C@H](Cc1ccccc1)C(=O)N1CCC[C@H]1C(=O)N[C@@H](CCCn1nnnc1N)B1O[C@@H]2CC3CC(C3(C)C)[C@]2(C)O1` (stereo partly specified), for which the values for the Ki at Coagulation factor X, at Prothrombin and on Serine protease 1 were 6000 nM, 350 nM and greater than 1200 nM, respectively.
The corresponding values for `CC(=O)N[C@H](Cc1ccccc1)C(=O)N1CCC[C@H]1C(=O)N[C@@H](CCCNc1cc(Cl)nc(N)n1)B1O[C@@H]2CC3CC(C3(C)C)[C@]2(C)O1` (stereo partly specified) are greater than 6000 nM, 43 nM and greater than 1200 nM.
The corresponding values for `CCCCS(=O)(=O)N[C@H](Cc1ccccc1)C(=O)N1CCC[C@H]1C(=O)N[C@@H](CCCn1ccnc1[N+](=O)[O-])B1O[C@@H]2CC3CC(C3(C)C)[C@]2(C)O1` (stereo partly specified) are 6000 nM, 15 nM and greater than 1200 nM.
At Coagulation factor X, `CC(=O)N[C@H](Cc1ccccc1)C(=O)N1CCC[C@H]1C(=O)N[C@@H](CCCN=C(N)N)B(O)O` showed a Ki of 9 nM.
In the case of `CC(=O)N[C@H](Cc1ccccc1)C(=O)N1CCC[C@H]1C(=O)N[C@@H](CCCNc1ccccn1)B1O[C@@H]2CC3CC(C3(C)C)[C@]2(C)O1` (stereo partly specified), the Ki was greater than 6000 nM on Coagulation factor X, 230 nM on Prothrombin and greater than 1200 nM on Serine protease 1.
Take `CC(=O)N[C@H](Cc1ccccc1)C(=O)N1CCC[C@H]1C(=O)N[C@@H](CCCSc1ncccn1)B1O[C@@H]2CC3CC(C3(C)C)[C@]2(C)O1` (stereo partly specified): the Ki at Prothrombin is 2000 nM; at Serine protease 1, greater than 1200 nM.
As to `CC(=O)N[C@H](Cc1ccccc1)C(=O)N1CCC[C@H]1C(=O)N[C@@H](CCCn1ncnc1[N+](=O)[O-])B1O[C@@H]2CC3CC(C3(C)C)[C@]2(C)O1` (stereo partly specified), the figures for the Ki at Coagulation factor X, on Prothrombin and on Serine protease 1 were greater than 6000 nM, 199 nM and greater than 1200 nM, respectively.
With `CCCCS(=O)(=O)N[C@H](Cc1ccccc1)C(=O)N1CCC[C@H]1C(=O)N[C@@H](CCCSc1ncccn1)B1O[C@@H]2CC3CC(C3(C)C)[C@]2(C)O1` (stereo partly specified), the Ki at Prothrombin was 8.8 nM.
For the molecule `CC(=O)N[C@H](Cc1ccccc1)C(=O)N1CCC[C@H]1C(=O)N[C@@H](CCCNc1ccnc(N)n1)B1O[C@@H]2CC3CC(C3(C)C)[C@]2(C)O1` (stereo partly specified), the affinity at Prothrombin, expressed as Ki, was 150 nM.
For the molecule `CC(=O)N[C@H](Cc1ccccc1)C(=O)N1CCC[C@H]1C(=O)N[C@@H](CCCn1ccnc1N)B1O[C@@H]2CC3CC(C3(C)C)[C@]2(C)O1` (stereo partly specified), the Ki was greater than 6000 nM at Coagulation factor X, 1.7 nM on Prothrombin and 20 nM at Serine protease 1.
Taken in the same sequence, the figures for `CC(=O)N[C@H](Cc1ccccc1)C(=O)N1CCC[C@H]1C(=O)N[C@@H](CCCn1ncnc1N)B1O[C@@H]2CC3CC(C3(C)C)[C@]2(C)O1` (stereo partly specified) were greater than 6000 nM, 507 nM and greater than 1200 nM.
The corresponding values for `CC(=O)N[C@H](Cc1ccccc1)C(=O)N1CCC[C@H]1C(=O)N[C@@H](CCCNc1ncccn1)B1O[C@@H]2CC3CC(C3(C)C)[C@]2(C)O1` (stereo partly specified) are greater than 6000 nM, 600 nM and greater than 1200 nM.
The corresponding values for `CC(=O)N[C@H](Cc1ccccc1)C(=O)N1CCC[C@H]1C(=O)N[C@@H](CCCn1ccnc1)B1O[C@@H]2CC3CC(C3(C)C)[C@]2(C)O1` (stereo partly specified) are 6000 nM, 67 nM and 27 nM.
`CC(=O)N[C@H](Cc1ccccc1)C(=O)N1CCC[C@H]1C(=O)N[C@@H](CCCn1ccnc1[N+](=O)[O-])B1O[C@@H]2CC3CC(C3(C)C)[C@]2(C)O1` (stereo partly specified): the Ki at Coagulation factor X was greater than 6000 nM; at Prothrombin, 650 nM; at Serine protease 1, greater than 1200 nM.
Taken in the same sequence, the figures for `CCCCS(=O)(=O)N[C@H](Cc1ccccc1)C(=O)N1CCC[C@H]1C(=O)N[C@@H](CCCNc1cc(Cl)nc(N)n1)B1O[C@@H]2CC3CC(C3(C)C)[C@]2(C)O1` (stereo partly specified) were greater than 6000 nM, 2.1 nM and 214 nM.
